Assay results taken from US20150018403A1, “FLUORENE-AMIDE COMPOUNDS AND PHARMACEUTICAL USE THEREOF” (JAPAN TOBACCO INC., priority 2013, published 2015).

How the values were obtained:
[1] = biological target: T1, hERG current (hERG-transfected HEK293 cells) (Homo sapiens, UniProt Q12809); assay: hERG whole cell patch clamp test; assay type: cell-based; conditions: whole cell patch clamp, hERG-transfected HEK293 cells
T1 construct: host or cells: HEK293
Experimental: (§1) Using human ether-a-go-go related gene (hERG)-transfected HEK293 cells (Cytomyx Limited), an influence on hERG current was examined according to the whole cell patch clamp technique. The hERG-transfected HEK293 cells were passaged using a CO2 incubator (BNA-111, TABAI ESPEC CORP.) under the set conditions of 37° C., 5% CO2, saturated humidity. Culture containers used were Collagen Type I Coated 75 cm^2 flask (4123-010, AGC TECHNO GLASS CO., Ltd.) and Collagen Type I Coated 35 mm culture dish (4000-010, AGC TECHNO GLASS CO., Ltd.). The culture medium used was E-MEM (Eagle Minimum Essential Medium (Earle's Salts, Nikken biomedical laboratory) added with 10% FCS (Fetal bovine serum, BioWest, L.L.C.) and 1% MEM Non-Essential Amino Acids Solution (NEAA, Invitrogen Corporation). Geneticin for the selection of hERG gene expressing cells was added thereto to a concentration of 400 μg/mL. As the cells for the measurement, 3×10^4 hERG-transfected HEK293 cells were plated on a 35 mm culture dish 4 to 7 days before measurement of the hERG current. The culture dish produced for the measurement contained the above-mentioned culture medium without geneticin (Invitrogen Corporation).
(§2) The highest evaluation concentration of each compound was determined from the highest concentration at which precipitation was not found in the standard extracellular fluid (NaCl: 140 mmol/L, KCl: 2.5 mmol/L, MgCl2: 2 mmol/L, CaCl2: 2 mmol/L, HEPES: 10 mmol/L, glucose: 10 mmol/L (adjusted to pH 7.4 with Tris-base)). As the application method, each solution to be applied was ejected from a Y-tube having a tip diameter of about 0.25 mm, which was adjacent (about 2 mm) to the cells, and applied to the cells. The ejection rate was about 0.4 mL/min.
(§3) The experiment was performed at room temperature under a phase contrast microscope. The 35 mm culture dish plated with the cells was set on a measurement apparatus, and the standard extracellular fluid was continuously applied to the cells from the Y-tube. A glass electrode for the measurement was filled with an intracellular fluid (Potassium Gluconate: 130 mmol/L, KCl: 20 mmol/L, MgCl2: 1 mmol/L, ATP-Mg: 5 mmol/L, EGTA: 3.5 mmol/L, HEPES: 10 mmol/L (adjusted to pH 7.2 with Tris-base)). A conventional whole cell patch clamp method was applied to the cells, and the maintenance electric potential was set to −80 mV. Under a fixed electric potential, the whole cell current was amplified by an amplifier for patch clamp (AXOPATCH-200B, Axon Instruments, Inc.), and the data was loaded into a computer (IMC-P642400, Intermedical Co., Ltd.) using a data acquisition analysis software (pCLAMP 9.2, Axon Instruments, Inc.).
(§4) The measurement of the hERG current was performed in the following two steps. In both cases, the hERG current was initiated by giving a command potential (maintenance electric potential −80 mV, prepulse+20 mV, 1.5 sec, test-pulse −50 mV, 1.5 sec).
(§5) Step (1): The above-mentioned command potential was given at 0.1 Hz for 2 min.
(§6) Step (2): The above-mentioned command potential was subjected to P/3 subtraction of pCLAMP 9.2 to remove leak current. This was repeated three times and an average thereof was taken as hERG current.
(§7) Subsequent to step (1), Step (2) was performed (about 3 min), and the maximum tail current obtained by applying a test-pulse to the hERG current obtained by the method of step (2) was taken as hERG current value. Hereafter, the operations of (1) and (2) were alternately repeated until completion of the experiment and the hERG current value was measured.
(§8) Stable hERG current value was recorded three times (about 10 min), and the standard extracellular fluid was instantaneously exchanged with each application fluid. The hERG current value was measured three times (about 10 min) in the same manner during perfusion of the application fluid, and the current value obtained by the 3rd measurement was taken as hERG current value after perfusion of the application fluid. […]

[2] = biological target: T2, hERG (Homo sapiens, UniProt Q12809); assay: hERG whole cell patch clamp test; assay type: cell-based; conditions: human, HEK293 cells transfected with hERG, pH 7.4; concentration 10 μmol/L; read-out: hERG inhibition rate (%)
T2 construct: host or cells: HEK293
Experimental: as §1, §2, §3, §4, §5, §6, §7, §8

[3] = biological target: T3, human PDHK2 (hPDHK2) (Homo sapiens, UniProt Q15119); assay: Inhibitory action of PDHK2 activity in vitro (residual PDH activity after kinase reaction); assay type: biochemical
T3 construct: made in house; host or cells: Escherichia coli BL21(DE3), pET17b vector
Experimental: The inhibitory action of PDHK activity was assessed indirectly by measuring the residual PDH activity after kinase reaction in the presence of a test compound.
In the case of human PDHK2 (hPDHK2, Genbank Accession No. BC040478.1), modified hPDHK2 cDNA wherein FLAG-Tag sequence was added to the N terminus of hPDHK2 cDNA clone (pReceiver-M01/PDK2-GeneCopoeia) was prepared by PCR and cloned into a vector (pET17b-Novagen). The recombinant construct was transformed into Escherichia coli (DH5α-TOYOBO). The recombinant clones were identified, and plasmid DNA was isolated and subjected to the DNA sequence analysis. One clone which had the expected nucleic acid sequence was selected for expression work.
For expression of hPDHK2 activity, Escherichia coli strain BL21(DE3) cells (Novagen) were transformed with the pET17b vector containing modified hPDHK2 cDNA. The Escherichia coli were grown to an optical density 0.6 ([…]) at 30° C. Protein expression was induced by the addition of 500 μmol/L isopropyl-β-thiogalactopyranoside. The Escherichia coli were cultured at 30° C. for 5 hr and harvested by centrifugation. Resuspension of the Escherichia coli paste was disrupted by a microfluidizer. FLAG-Tagged protein was purified using FLAG affinity gel. The gel was washed with 20 mmol/L HEPES-NaOH, 500 mmol/L sodium chloride, 1% ethylene glycol, and 0.1% Pluronic F-68 (pH 8.0), and the binding protein was eluted with 20 mmol/L HEPES-NaOH, 100 μg/mL FLAG peptide, 500 mmol/L sodium chloride, 1% ethylene glycol, and 0.1% Pluronic F-68 (pH 8.0). The eluted fractions containing FLAG-Tagged protein were pooled, dialyzed against 20 mmol/L HEPES-NaOH, 150 mmol/L sodium chloride, 0.5 mmol/L EDTA, 1% ethylene glycol, and 0.1% Pluronic F-68 (pH 8.0), and preserved at −80° C.
0.05 U/mL PDH and 0.8 μg/mL hPDHK2 were mixed in a buffer (50 mmol/L 3-morpholinopropanesulfonic acid (pH 7.0), 20 mmol/L dipotassium hydrogen phosphate, 60 mmol/L potassium chloride, 2 mmol/L magnesium chloride, 0.4 mmol/L EDTA, and 0.2% Pluronic F-68, 2 mmol/L dithiothreitol), and the mixture was incubated at 4° C. overnight to obtain a PDH/hPDHK2 complex. The test compounds were diluted with DMSO. […] DMSO (1.5 μL) was added to control wells instead of the test compound. […] The mixture was incubated at room temperature for 90 min, and the residual PDH activity was measured. The absorbance at 340 nm before and after PDH reaction was measured using a microplate reader to detect NADH produced by the PDH reaction. The hPDHK2 inhibition rate (%) of the test compound was calculated from the formula [{(PDH activity of test compound−PDH activity of control)/PDH activity of blank−PDH activity of control)}×100].

[4] = Metabolic stability test in rat liver microsome; assay type: in vitro ADME
[5] = Metabolic stability test in human liver microsome; assay type: in vitro ADME; conditions: 37° C., 5 μM
Experimental: Human liver microsome (manufactured by Xenotech, H0620, final concentration (after dilution), 0.2 mg protein/mL) was suspended in 100 mM potassium phosphate buffer (pH 7.4, containing β-nicotinamide adenine dinucleotide phosphate: 1.3 mM, D-glucose-6-phosphate: 3.3 mM, magnesium chloride: 3.3 mM, glucose-6-phosphate dehydrogenase: 0.45 U/mL), and further mixed with a test compound dissolved in MeCN/DMSO (95/5) (final concentration 5 μM). The mixture was incubated at 37° C. for 10 min and 60 min, acetonitrile containing formic acid (final concentration 0.1%) was added, and the mixture was centrifuged. The test compound (unmodified) in the supernatant was measured by high performance liquid chromatography/mass spectrometry (LC/MS) (manufactured by Waters, LC: Acquity UPLC, MS:SQ Detector or TQ Detector). The residual ratio (%) was calculated from the obtained measurement value.

T2 sequence (Q12809 whole entry): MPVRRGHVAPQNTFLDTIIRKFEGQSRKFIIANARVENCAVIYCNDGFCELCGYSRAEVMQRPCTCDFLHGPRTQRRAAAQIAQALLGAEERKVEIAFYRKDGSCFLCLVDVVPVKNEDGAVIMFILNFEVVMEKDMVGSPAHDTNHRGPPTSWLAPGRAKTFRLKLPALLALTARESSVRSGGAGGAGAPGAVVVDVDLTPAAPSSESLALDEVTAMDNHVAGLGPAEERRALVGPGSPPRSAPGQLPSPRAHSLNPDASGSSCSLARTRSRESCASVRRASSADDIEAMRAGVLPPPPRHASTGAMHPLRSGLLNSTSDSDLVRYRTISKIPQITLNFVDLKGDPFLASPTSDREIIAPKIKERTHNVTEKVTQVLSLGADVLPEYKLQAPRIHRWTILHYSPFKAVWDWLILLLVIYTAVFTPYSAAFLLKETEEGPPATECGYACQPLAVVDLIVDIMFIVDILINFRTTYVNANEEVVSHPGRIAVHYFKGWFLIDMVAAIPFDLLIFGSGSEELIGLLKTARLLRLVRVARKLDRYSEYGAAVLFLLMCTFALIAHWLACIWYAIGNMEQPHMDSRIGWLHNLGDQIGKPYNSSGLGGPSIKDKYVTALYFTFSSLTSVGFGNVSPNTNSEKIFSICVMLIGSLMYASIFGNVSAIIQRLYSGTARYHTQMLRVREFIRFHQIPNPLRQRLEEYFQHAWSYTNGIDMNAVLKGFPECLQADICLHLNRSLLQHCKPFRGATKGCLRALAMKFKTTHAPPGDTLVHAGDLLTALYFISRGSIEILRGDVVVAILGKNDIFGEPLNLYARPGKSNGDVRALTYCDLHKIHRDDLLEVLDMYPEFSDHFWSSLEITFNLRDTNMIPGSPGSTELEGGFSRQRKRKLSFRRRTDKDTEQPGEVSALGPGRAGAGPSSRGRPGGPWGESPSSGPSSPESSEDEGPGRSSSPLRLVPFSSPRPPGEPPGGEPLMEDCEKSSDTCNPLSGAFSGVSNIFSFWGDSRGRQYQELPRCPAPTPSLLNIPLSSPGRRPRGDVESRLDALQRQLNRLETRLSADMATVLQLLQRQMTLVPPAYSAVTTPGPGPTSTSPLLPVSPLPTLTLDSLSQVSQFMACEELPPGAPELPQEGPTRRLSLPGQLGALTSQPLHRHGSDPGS
T1 sequence (Q12809 whole entry): as above

## NC(=O)Cn1cc(-c2cc(OCCC34CC5CC(CC(O)(C5)C3)C4)cc3c2-c2ccccc2[C@]3(O)C(F)(F)F)cn1 [compound (A), 2-(4-{(9R)-9-Hydroxy-2-[2-(3-hydroxyadamantan-1-yl)ethoxy]-9-(trifluoromethyl)-9H-fluoren-4-yl}-1H-pyrazol-1-yl)acetamide, reference compound]
[1]
  IC50: > 10000 nM
[2]
  inhibition at 10 μmol/L: 11.8%
[3]
  IC50: 5.1 nM
[4]; 10 min
  stability in liver microsome (residual ratio %): 24.8%
[4]; 60 min
  stability in liver microsome (residual ratio %): 0.0%
[5]; 10 min
  stability in liver microsome (residual ratio %): 34.8%
[5]; 60 min
  stability in liver microsome (residual ratio %): 0.0%
